Target: T1, hDAGL-β (Homo sapiens, UniProt Q8NCG7)
T1 sequence (Q8NCG7 1-672): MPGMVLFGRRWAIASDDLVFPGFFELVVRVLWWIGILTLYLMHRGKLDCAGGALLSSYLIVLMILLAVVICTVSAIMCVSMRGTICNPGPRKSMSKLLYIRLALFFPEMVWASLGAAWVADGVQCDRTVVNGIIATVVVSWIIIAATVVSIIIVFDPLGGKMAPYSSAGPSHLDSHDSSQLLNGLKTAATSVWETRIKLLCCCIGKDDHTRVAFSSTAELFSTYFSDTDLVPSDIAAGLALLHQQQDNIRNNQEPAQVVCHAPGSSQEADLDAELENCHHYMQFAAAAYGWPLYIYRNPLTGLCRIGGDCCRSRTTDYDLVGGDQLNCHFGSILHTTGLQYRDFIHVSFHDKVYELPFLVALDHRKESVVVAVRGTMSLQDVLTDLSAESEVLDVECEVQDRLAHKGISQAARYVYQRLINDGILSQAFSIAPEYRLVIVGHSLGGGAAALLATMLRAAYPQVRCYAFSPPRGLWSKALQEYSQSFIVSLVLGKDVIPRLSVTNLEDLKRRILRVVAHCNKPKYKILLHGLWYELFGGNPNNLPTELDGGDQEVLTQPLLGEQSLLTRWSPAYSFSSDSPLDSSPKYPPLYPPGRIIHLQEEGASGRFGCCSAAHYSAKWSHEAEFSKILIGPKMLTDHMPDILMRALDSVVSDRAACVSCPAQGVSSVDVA
Test: Competitive ABPP with MB064 on membranes of hDAGL-β transfected HEK293 cells
Assay type: biochemical
Set-up: FLAG; expressed in transfected cells; host or cells: HEK293, membranes
Details: n=3, read-out: pIC50 of hDAGL-β labeling (converted)
Description: In view of the high homology between DAGL-α and DAGL-β the inventors assesed the activity of compound 25 also on native DAGL-β. To this end, it was tested whether the ABP probe MB064 was also able to label DAGL-β. MB064 was incubated with membranes from mock and hDAGL-β transfected HEK293 cells. MB064 was able to label a protein at the expected molecular weight of DAGL-β, which was not present in the control membranes, or in S443A-hDAGL-β transfected cells, in which the catalytic serine is replaced by alanine using site-directed mutagenesis (Figure 1 F). Thus, the tailor-made probe can also detect DAGL-β.

IC50: 39.8 nM
SMILES: Cc1ccc(-c2cnc3nc(C(=O)CCCCCc4ccccc4)oc3c2)cc1 [Compound 25, 1-(6-(p-Tolyl)oxazolo[4,5-b]pyridin-2-yl)-6-phenylhexan-1-one]

Source: patent EP3095787A1, “[…] ACTIVE COMPOUNDS AS DAG-LIPASE INHIBITORS” (Universiteit Leiden, priority 2015, dated 2016)
